Test systems include OVCAR-4; SF-268; NCI-H226; HCT-15; CAKI-1; OVCAR-3; COLO 205; SW-620; HCC 2998; OVCAR-8; HT-29; SF-295; NCI-H23; MDA-MB-435; KM12; T47D; BT-549; DU-145; U-251; RXF 393.
What all share (assay): inhibition of tumour cell growth, NCI panel, 48 h

Several values for one entry are separate records, joined by “and”; a condition that tells them apart may be missing. Equal values may be shown once.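 Test compounds were applied to cells in 96-well plates for 48 hours at 5 doses. GI50 marks 50% less growth.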 Activity calls are given as the source filed them. Rule as the data show it: active = GI50 up to about 1.1 µM and inactive = higher.

For `O=C1N(C2CCCCC2)C(=O)N1C1CCCCC1`, the GI50 was 1.68 µM (inactive) in the experiment on OVCAR-4; 0.75 µM (active) in the experiment with SF-268; 0.416 µM (active) in the experiment on NCI-H226; 0.257 µM with HCT-15; 1.04 µM (active) in the experiment on CAKI-1; 1.87 µM (inactive) with OVCAR-3. Also, the GI50 in the experiment on COLO 205 was 0.467 µM (active); in the experiment with SW-620 it was 1.95 µM (inactive); in the experiment on HCC 2998, 1.16 µM (inactive); in the experiment on OVCAR-8 it was 0.0929 µM (active); in the experiment with HT-29, 0.701 µM (active); in the experiment with SF-295, 0.29 µM (active). The GI50 in the experiment on NCI-H23 was 0.83 µM (active); in the experiment on MDA-MB-435, 2.08 µM (inactive); in the experiment on KM12 it was 0.285 µM (active); in the experiment on T47D, 0.56 µM (active); in the experiment on BT-549, 0.0272 µM (active); with DU-145, 0.126 µM (active). In the experiment on U-251, the GI50 was 0.388 µM (active).
Turning to `Nc1ccn(C2CC(O)C(COP(=O)(S)OC3CC(n4ccc(N)nc4=O)OC3CO)O2)c(=O)n1` (stereo not given), the GI50 was > 100 µM (inactive) with OVCAR-4; > 100 µM (inactive) in the experiment on SF-268; more than 100 µM in the experiment on HCT-15; > 100 µM (inactive) in the experiment with CAKI-1; > 100 µM (inactive) in the experiment on OVCAR-3; 13.8 µM (inactive) in the experiment on COLO 205. For the same molecule, the GI50 with SW-620, in the experiment on HCC 2998, in the experiment on OVCAR-8, in the experiment on HT-29, in the experiment with SF-295 and in the experiment on NCI-H23 was > 100 µM (inactive) in each case. Besides, the GI50 in the experiment with MDA-MB-435, in the experiment with KM12, in the experiment on T47D, with BT-549, with DU-145 and in the experiment on U-251 was > 100 µM (inactive) throughout.
Consider `O=S(=O)(O)c1cc(O)c(/N=N/c2ccc3ccccc3c2O)c2ccccc12` [ERIOCHROME BLUE BLACK B], for which the GI50 with OVCAR-4 is 78.3 µM (inactive); with SF-268, 10.5 µM (inactive); with NCI-H226, 16.1 µM (inactive); in the experiment with HCT-15, 23.9 µM; with CAKI-1, 27 µM (inactive); in the experiment on OVCAR-3, 4.71 µM (inactive). The GI50 in the experiment with COLO 205 is 28.7 µM (inactive); with RXF 393 it was 80.9 µM (inactive); in the experiment on SW-620 it was 33.9 µM (inactive); with HT-29, 24.7 µM (inactive); in the experiment with SF-295, 27.4 µM (inactive); in the experiment on NCI-H23, 15.2 µM (inactive). For the same molecule, the GI50 is 1.97 µM (inactive) with MDA-MB-435; 30.4 µM (inactive) in the experiment on KM12; 15.8 µM (inactive) in the experiment on T47D; 37.3 µM (inactive) in the experiment with BT-549; 14.3 µM (inactive) in the experiment with DU-145; 32.4 µM (inactive) with U-251.
On to `O=C(Cc1ccccc1)NN1C(=O)/C(=C\c2ccccc2O)S/C1=N\c1ccccc1`, for which the GI50 in the experiment with OVCAR-4 was > 100 µM (inactive); with SF-268 it was > 100 µM (inactive); with NCI-H226 it was > 100 µM (inactive); in the experiment on HCT-15 it was more than 100 µM; with OVCAR-3, > 100 µM (inactive); with COLO 205 it was > 100 µM (inactive). The GI50 in the experiment with RXF 393, with SW-620, in the experiment on HCC 2998, in the experiment on OVCAR-8, in the experiment with HT-29 and in the experiment on SF-295 was > 100 µM (inactive) in each case. The GI50 with NCI-H23, in the experiment on MDA-MB-435, in the experiment with KM12, in the experiment with T47D, with BT-549 and in the experiment with DU-145 was > 100 µM (inactive) throughout. For the same molecule, in the experiment with U-251, the GI50 was > 100 µM (inactive).
In the case of `CCCCCCC(=O)O[C@H]1CC[C@H]2[C@@H]3CCC4C/C(=N/NC(=O)c5cccc6c(=O)c7ccccc7[nH]c56)C=C(C)[C@]4(C)[C@H]3CC[C@]12C` (stereo not given in full), the GI50 in the experiment on OVCAR-4 was > 25 µM (inactive); with SF-268 it was > 25 µM (inactive); in the experiment with NCI-H226 it was > 25 µM (inactive); in the experiment with HCT-15, more than 25 µM; with CAKI-1, > 25 µM (inactive); in the experiment with OVCAR-3 it was > 25 µM (inactive). The GI50 in the experiment on COLO 205, in the experiment on SW-620, in the experiment with HCC 2998, with OVCAR-8, in the experiment with HT-29 and in the experiment on SF-295 was > 25 µM (inactive) each time. The GI50 with NCI-H23 was > 25 µM (inactive); in the experiment with MDA-MB-435, > 25 µM (inactive); in the experiment with KM12 it was 9.27 µM (inactive); in the experiment with T47D, > 25 µM (inactive); in the experiment with BT-549 it was > 25 µM (inactive); in the experiment with DU-145 it was > 25 µM (inactive). The GI50 with U-251 is > 25 µM (inactive).
Take `CCOC(=O)Cc1[nH]c(C(=O)c2ccccc2)cc1C(=O)c1ccccc1`: the GI50 was 18.3 µM (inactive) in the experiment with OVCAR-4; 56.4 µM (inactive) with SF-268; 23.3 µM (inactive) with NCI-H226; 68.7 µM in the experiment with HCT-15; 46.3 µM (inactive) in the experiment on OVCAR-3; 21.7 µM (inactive) with COLO 205. The GI50 is 24.3 µM (inactive) in the experiment with RXF 393; > 100 µM (inactive) in the experiment on SW-620; 50.4 µM (inactive) in the experiment with HCC 2998; > 10 µM (inactive) in the experiment with OVCAR-8; > 10 µM (inactive) with HT-29; > 10 µM (inactive) in the experiment with SF-295. Moreover, the GI50 with NCI-H23 was 17.4 µM (inactive); in the experiment on MDA-MB-435, 13.8 µM (inactive); in the experiment with KM12, 48.9 µM (inactive); in the experiment with T47D, 17.7 µM (inactive); in the experiment on BT-549 it was 20.6 µM (inactive); in the experiment on DU-145, > 10 µM (inactive). Also, in the experiment with U-251, the GI50 is > 100 µM (inactive).
For `COc1ccccc1/N=N/c1c(O)ccc2ccccc12`, the GI50 in the experiment on SF-268 is 29.9 µM (inactive) and 33.4 µM (inactive); with HCT-15 it was more than 63.2 µM; in the experiment on CAKI-1 it was 18.7 µM (inactive) and 25.6 µM (inactive); with OVCAR-3, 31.4 µM (inactive) and 32.1 µM (inactive); with COLO 205, 56.8 µM (inactive) and 64.7 µM (inactive); in the experiment on SW-620, 56.8 µM (inactive) and 66.7 µM (inactive). The GI50 was 21.3 µM (inactive) in the experiment on HCC 2998; 25.8 µM (inactive) and 30.3 µM (inactive) with OVCAR-8; 34.6 µM (inactive) and 30.7 µM (inactive) in the experiment with HT-29; 20 µM (inactive) and 28.5 µM (inactive) in the experiment on SF-295; 21.7 µM (inactive) and 31.4 µM (inactive) with NCI-H23; 74 µM (inactive) and 78.2 µM (inactive) with MDA-MB-435. Besides, the GI50 in the experiment with KM12 was 51.6 µM (inactive) and > 45.5 µM (inactive); in the experiment on T47D, 23.3 µM (inactive) and 38.2 µM (inactive); in the experiment on BT-549, 84.3 µM (inactive); in the experiment on DU-145, 54.2 µM (inactive) and 98.9 µM (inactive); in the experiment with U-251 it was 14.2 µM (inactive) and 18.9 µM (inactive).
As for `O=C1c2cc(O)c(O)cc2O[C@H](c2ccc(O)c(O)c2)[C@H]1O`, the GI50 in the experiment with SF-268 is > 100 µM (inactive); in the experiment on NCI-H226 it was 85.1 µM (inactive); in the experiment on HCT-15, more than 100 µM; in the experiment on CAKI-1 it was > 100 µM (inactive); with OVCAR-3, > 100 µM (inactive); in the experiment on COLO 205, > 100 µM (inactive). The GI50 in the experiment with SW-620 was > 100 µM (inactive); in the experiment on HCC 2998, > 100 µM (inactive); with OVCAR-8 it was > 100 µM (inactive); in the experiment on HT-29, > 100 µM (inactive); in the experiment with SF-295, > 100 µM (inactive); with NCI-H23 it was 45.4 µM (inactive). Besides, the GI50 in the experiment with MDA-MB-435, with KM12, in the experiment with T47D, with BT-549, with DU-145 and in the experiment with U-251 was > 100 µM (inactive) each time.
For `O=C(O)CCC(NC(=O)c1ccc(Nc2nc3ccc(C(F)(F)F)cc3nc2C(=O)O)cc1)C(=O)O` (stereo not given), the GI50 in the experiment on SF-268 is > 100 µM (inactive); with NCI-H226, > 100 µM (inactive); in the experiment with HCT-15 it was more than 100 µM; in the experiment with OVCAR-3, 69.8 µM (inactive); in the experiment with COLO 205 it was > 100 µM (inactive); with RXF 393 it was > 100 µM (inactive). In addition, the GI50 in the experiment with SW-620, in the experiment with HCC 2998, in the experiment with OVCAR-8, with HT-29, with SF-295 and in the experiment on NCI-H23 was > 100 µM (inactive) in each case. Moreover, the GI50 with MDA-MB-435, in the experiment on KM12, in the experiment with T47D, with BT-549, in the experiment with DU-145 and with U-251 was > 100 µM (inactive) each time.
Consider `C=C(C)c1cc(C(C)(C)C)cc(C(=C)C)c1S(C)(=O)=O`, for which the GI50 in the experiment with OVCAR-4 is > 100 µM (inactive); in the experiment with SF-268, > 100 µM (inactive); in the experiment on NCI-H226, > 100 µM (inactive); in the experiment on HCT-15 it was more than 100 µM; in the experiment on CAKI-1, > 100 µM (inactive); in the experiment on OVCAR-3, > 100 µM (inactive). Further, the GI50 in the experiment with COLO 205 was 0.596 µM (active); in the experiment on SW-620, > 100 µM (inactive); in the experiment on HCC 2998, > 100 µM (inactive); in the experiment with OVCAR-8, > 100 µM (inactive); in the experiment on HT-29, > 100 µM (inactive); with SF-295 it was > 100 µM (inactive). Further, the GI50 in the experiment on NCI-H23 is > 100 µM (inactive); with MDA-MB-435, > 100 µM (inactive); in the experiment with KM12, > 100 µM (inactive); with T47D, 10.7 µM (inactive); with BT-549, > 100 µM (inactive); in the experiment on DU-145, > 100 µM (inactive). The GI50 in the experiment with U-251 was > 100 µM (inactive).
For the molecule `CCOc1cc(C2CC(c3ccc(NS(=O)(=O)c4cc([N+](=O)[O-])ccc4C)cc3)=NN2)ccc1O` (stereo not given), the GI50 in the experiment on OVCAR-4 was 22.8 µM (inactive); with SF-268 it was 45.5 µM (inactive); with NCI-H226 it was 43 µM (inactive); in the experiment with HCT-15, 20.5 µM; in the experiment with CAKI-1, 29.3 µM (inactive); in the experiment on OVCAR-3, 15.3 µM (inactive). The GI50 in the experiment with COLO 205 is 22.3 µM (inactive); with RXF 393, 18.6 µM (inactive); in the experiment on SW-620 it was 32.8 µM (inactive); in the experiment with OVCAR-8, 44.5 µM (inactive); in the experiment with HT-29 it was 26.8 µM (inactive); in the experiment with NCI-H23, 28 µM (inactive). For the same molecule, the GI50 with MDA-MB-435 is 28.1 µM (inactive); with T47D, 27.9 µM (inactive); with BT-549 it was 21.1 µM (inactive); in the experiment with DU-145, 36.6 µM (inactive).

(Values after ChEMBL document CHEMBL1201862, “PubChem BioAssay data set” (2004).)
